“And” between values parts separate entries of the source, which are not always exact repeats. Identical values can stand only once. Numbers after ± are expanded uncertainties.
Legend:
[1] = molar heat capacity at constant pressure; details: 298.15 K; 101.33 kPa; Crystal; Small sample (50 mg) DSC
[2] = Molar enthalpy of transition or fusion; details: Crystal; DSC
[3] = for vapor or sublimation pressure: Liquid, Rate of evaporation; for Normal melting temperature: Crystal, DTA

In the case of NC(=O)c1ccccc1[N+](=O)[O-] [2-nitrobenzamide], the “molar heat capacity at constant pressure” value [1] is reported as 220.96 ± 10 J/K/mol, the “Molar enthalpy of transition or fusion” value [2] is reported as 27.7 ± 0.61 kJ/mol and the “vapor or sublimation pressure” value ([3]; 485.02 K) is reported as 0.5592 ± 0.071 kPa. For the same molecule, the “vapor or sublimation pressure” value ([3]; 485.04 K) was 0.5538 ± 0.072 kPa, the “vapor or sublimation pressure” value ([3]; 485.08 K) was 0.5802 ± 0.068 kPa and the “vapor or sublimation pressure” value ([3]; 490.02 K) was 0.6682 ± 0.086 kPa. The “vapor or sublimation pressure” value ([3]; 490.06 K) was 0.6975 ± 0.088 kPa, the “vapor or sublimation pressure” value ([3]; 490.07 K) was 0.6914 ± 0.088 kPa and the “vapor or sublimation pressure” value ([3]; 495 K) was 0.8483 ± 0.11 kPa. The “vapor or sublimation pressure” value ([3]; 495.01 K) was 0.8342 ± 0.11 kPa, the “vapor or sublimation pressure” value ([3]; 495.05 K) was 0.8126 ± 0.1 kPa and the “vapor or sublimation pressure” value ([3]; 500.01 K) was 1.016 ± 0.13 kPa. The “vapor or sublimation pressure” value ([3]; 500.05 K) was 0.9934 ± 0.13 kPa, the “vapor or sublimation pressure” value ([3]; 500.08 K) was 1.036 ± 0.13 kPa and the “vapor or sublimation pressure” value ([3]; 505 K) was 1.234 ± 0.15 kPa. The “vapor or sublimation pressure” value ([3]; 505.03 K) was 1.212 ± 0.15 kPa, the “vapor or sublimation pressure” value ([3]; 505.05 K) was 1.264 ± 0.16 kPa and the “vapor or sublimation pressure” value ([3]; 510.02 K) was 1.487 ± 0.19 kPa. The “vapor or sublimation pressure” value ([3]; 510.04 K) was 1.531 ± 0.2 kPa, the “vapor or sublimation pressure” value ([3]; 510.07 K) was 1.503 ± 0.19 kPa and the “vapor or sublimation pressure” value ([3]; 515.02 K) was 1.877 ± 0.24 kPa. For the same molecule, the “vapor or sublimation pressure” value ([3]; 515.05 K) was 1.829 ± 0.23 kPa, the “vapor or sublimation pressure” value ([3]; 515.08 K) was 1.822 ± 0.23 kPa and the “vapor or sublimation pressure” value ([3]; 520.02 K) was 2.233 ± 0.28 kPa. For the same molecule, the “vapor or sublimation pressure” value ([3]; 520.05 K) was 2.227 ± 0.28 kPa, the “vapor or sublimation pressure” value ([3]; 520.07 K) was 2.203 ± 0.28 kPa and the “vapor or sublimation pressure” value ([3]; 525.01 K) was 2.884 ± 0.36 kPa and 2.697 ± 0.35 kPa. For the same molecule, the “vapor or sublimation pressure” value ([3]; 525.06 K) was 2.718 ± 0.35 kPa, the “vapor or sublimation pressure” value ([3]; 530.02 K) was 3.274 ± 0.41 kPa and the “vapor or sublimation pressure” value ([3]; 530.03 K) was 3.315 ± 0.41 kPa. For the same molecule, the “vapor or sublimation pressure” value ([3]; 530.07 K) was 3.29 ± 0.41 kPa, the “vapor or sublimation pressure” value ([3]; 535.02 K) was 3.942 ± 0.47 kPa and the “vapor or sublimation pressure” value ([3]; 535.03 K) was 3.951 ± 0.48 kPa. The “vapor or sublimation pressure” value ([3]; 535.06 K) was 3.957 ± 0.48 kPa and the Normal melting temperature [3] was 173.80 ± 0.4 °C.
For c1ccc2c(c1)ccc1ccccc12 [phenanthrene], the “vapor or sublimation pressure” value ([3]; 400 K) was 0.1505 ± 0.019 kPa [middle of 4 runs], the “vapor or sublimation pressure” value ([3]; 405 K) was 0.18 ± 0.023 kPa [middle of 4 runs] and the “vapor or sublimation pressure” value ([3]; 410 K) was 0.2218 ± 0.029 kPa [middle of 4 runs]. For the same molecule, the “vapor or sublimation pressure” value ([3]; 415 K) was 0.2759 ± 0.036 kPa [middle of 4 runs], the “vapor or sublimation pressure” value ([3]; 420 K) was 0.3417 ± 0.045 kPa [middle of 4 runs] and the “vapor or sublimation pressure” value ([3]; 425 K) was 0.427 ± 0.056 kPa [middle of 4 runs]. For the same molecule, the “vapor or sublimation pressure” value ([3]; 430 K) was 0.5304 ± 0.07 kPa [middle of 4 runs], the “vapor or sublimation pressure” value ([3]; 435 K) was 0.6576 ± 0.086 kPa [middle of 4 runs] and the “vapor or sublimation pressure” value ([3]; 440 K) was 0.8141 ± 0.11 kPa [middle of 4 runs]. For the same molecule, the “vapor or sublimation pressure” value ([3]; 445 K) was 1.004 ± 0.13 kPa [middle of 4 runs], the “vapor or sublimation pressure” value ([3]; 450 K) was 1.235 ± 0.16 kPa [middle of 4 runs] and the “vapor or sublimation pressure” value ([3]; 455 K) was 1.516 ± 0.19 kPa [middle of 4 runs]. The “vapor or sublimation pressure” value ([3]; 460 K) was 1.844 ± 0.23 kPa [middle of 4 runs], the “vapor or sublimation pressure” value ([3]; 465 K) was 2.233 ± 0.28 kPa [middle of 4 runs] and the “vapor or sublimation pressure” value ([3]; 470 K) was 2.697 ± 0.33 kPa [middle of 4 runs]. For the same molecule, the “vapor or sublimation pressure” value ([3]; 475 K) was 3.245 ± 0.4 kPa [middle of 4 runs] and the “vapor or sublimation pressure” value ([3]; 480 K) was 3.773 ± 0.45 kPa and 3.874 ± 0.48 kPa and 3.819 ± 0.47 kPa.
For NC(=O)c1cccc([N+](=O)[O-])c1 [3-nitrobenzamide], the “molar heat capacity at constant pressure” value [1] was 237.57 ± 10 J/K/mol, the “Molar enthalpy of transition or fusion” value [2] was 24.6 ± 0.56 kJ/mol and the “vapor or sublimation pressure” value ([3]; 485 K) was 0.7222 ± 0.096 kPa. The “vapor or sublimation pressure” value ([3]; 485.02 K) was 0.7094 ± 0.099 kPa, the “vapor or sublimation pressure” value ([3]; 485.06 K) was 0.6868 ± 0.1 kPa and the “vapor or sublimation pressure” value ([3]; 490.01 K) was 0.8798 ± 0.12 kPa. The “vapor or sublimation pressure” value ([3]; 490.02 K) was 0.868 ± 0.12 kPa, the “vapor or sublimation pressure” value ([3]; 490.06 K) was 0.84 ± 0.11 kPa and the “vapor or sublimation pressure” value ([3]; 495.01 K) was 1.068 ± 0.14 kPa. The “vapor or sublimation pressure” value ([3]; 495.02 K) was 1.057 ± 0.14 kPa, the “vapor or sublimation pressure” value ([3]; 495.05 K) was 1.021 ± 0.14 kPa and the “vapor or sublimation pressure” value ([3]; 500 K) was 1.286 ± 0.16 kPa. The “vapor or sublimation pressure” value ([3]; 500.01 K) was 1.284 ± 0.16 kPa, the “vapor or sublimation pressure” value ([3]; 500.04 K) was 1.246 ± 0.16 kPa and the “vapor or sublimation pressure” value ([3]; 505.03 K) was 1.495 ± 0.19 kPa. For the same molecule, the “vapor or sublimation pressure” value ([3]; 505.07 K) was 1.556 ± 0.19 kPa, the “vapor or sublimation pressure” value ([3]; 505.08 K) was 1.557 ± 0.19 kPa and the “vapor or sublimation pressure” value ([3]; 510 K) was 1.794 ± 0.22 kPa. The “vapor or sublimation pressure” value ([3]; 510.04 K) was 1.867 ± 0.23 kPa, the “vapor or sublimation pressure” value ([3]; 510.06 K) was 1.872 ± 0.23 kPa and the “vapor or sublimation pressure” value ([3]; 515.02 K) was 2.228 ± 0.26 kPa. The “vapor or sublimation pressure” value ([3]; 515.03 K) was 2.226 ± 0.26 kPa, the “vapor or sublimation pressure” value ([3]; 515.06 K) was 2.146 ± 0.25 kPa and the “vapor or sublimation pressure” value ([3]; 520.02 K) was 2.545 ± 0.32 kPa. The “vapor or sublimation pressure” value ([3]; 520.06 K) was 2.654 ± 0.33 kPa, the “vapor or sublimation pressure” value ([3]; 520.07 K) was 2.633 ± 0.33 kPa and the “vapor or sublimation pressure” value ([3]; 525.02 K) was 3.119 ± 0.36 kPa. For the same molecule, the “vapor or sublimation pressure” value ([3]; 525.03 K) was 3.091 ± 0.36 kPa, the “vapor or sublimation pressure” value ([3]; 525.06 K) was 3.009 ± 0.35 kPa and the “vapor or sublimation pressure” value ([3]; 530 K) was 3.525 ± 0.42 kPa. The “vapor or sublimation pressure” value ([3]; 530.04 K) was 3.638 ± 0.43 kPa, the “vapor or sublimation pressure” value ([3]; 530.06 K) was 3.596 ± 0.43 kPa and the “vapor or sublimation pressure” value ([3]; 535.01 K) was 4.145 ± 0.47 kPa. For the same molecule, the “vapor or sublimation pressure” value ([3]; 535.03 K) was 4.119 ± 0.46 kPa, the “vapor or sublimation pressure” value ([3]; 535.06 K) was 4.215 ± 0.49 kPa and the Normal melting temperature [3] was 141.51 ± 0.42 °C.
With NC(=O)c1ccc([N+](=O)[O-])cc1 [p-nitrobenzamide] the “molar heat capacity at constant pressure” value [1] was 212.65 ± 8.3 J/K/mol, the “Molar enthalpy of transition or fusion” value [2] was 30.1 ± 0.66 kJ/mol and the “vapor or sublimation pressure” value ([3]; 485.02 K) was 0.6396 ± 0.1 kPa and 0.6809 ± 0.094 kPa. For the same molecule, the “vapor or sublimation pressure” value ([3]; 485.04 K) was 0.5788 ± 0.12 kPa, the “vapor or sublimation pressure” value ([3]; 485.1 K) was 0.6701 ± 0.097 kPa and the “vapor or sublimation pressure” value ([3]; 490.01 K) was 0.8437 ± 0.11 kPa. The “vapor or sublimation pressure” value ([3]; 490.03 K) was 0.8038 ± 0.11 kPa, the “vapor or sublimation pressure” value ([3]; 490.07 K) was 0.7398 ± 0.1 kPa and the “vapor or sublimation pressure” value ([3]; 490.08 K) was 0.7145 ± 0.1 kPa. For the same molecule, the “vapor or sublimation pressure” value ([3]; 495.01 K) was 1.021 ± 0.12 kPa and 0.9548 ± 0.12 kPa, the “vapor or sublimation pressure” value ([3]; 495.05 K) was 0.9568 ± 0.12 kPa and the “vapor or sublimation pressure” value ([3]; 495.06 K) was 0.871 ± 0.11 kPa. For the same molecule, the “vapor or sublimation pressure” value ([3]; 500.01 K) was 1.06 ± 0.13 kPa, the “vapor or sublimation pressure” value ([3]; 500.03 K) was 1.229 ± 0.15 kPa and the “vapor or sublimation pressure” value ([3]; 500.04 K) was 1.142 ± 0.14 kPa. The “vapor or sublimation pressure” value ([3]; 500.06 K) was 1.154 ± 0.14 kPa, the “vapor or sublimation pressure” value ([3]; 505 K) was 1.286 ± 0.17 kPa and the “vapor or sublimation pressure” value ([3]; 505.03 K) was 1.474 ± 0.18 kPa. For the same molecule, the “vapor or sublimation pressure” value ([3]; 505.05 K) was 1.352 ± 0.17 kPa, the “vapor or sublimation pressure” value ([3]; 505.06 K) was 1.416 ± 0.18 kPa and the “vapor or sublimation pressure” value ([3]; 510 K) was 1.671 ± 0.22 kPa. For the same molecule, the “vapor or sublimation pressure” value ([3]; 510.02 K) was 1.683 ± 0.22 kPa, the “vapor or sublimation pressure” value ([3]; 510.04 K) was 1.565 ± 0.21 kPa and the “vapor or sublimation pressure” value ([3]; 510.06 K) was 1.777 ± 0.23 kPa. For the same molecule, the “vapor or sublimation pressure” value ([3]; 515.01 K) was 2.113 ± 0.25 kPa and 2.01 ± 0.24 kPa, the “vapor or sublimation pressure” value ([3]; 515.04 K) was 2.03 ± 0.24 kPa and the “vapor or sublimation pressure” value ([3]; 515.06 K) was 1.895 ± 0.23 kPa. The “vapor or sublimation pressure” value ([3]; 520.02 K) was 2.452 ± 0.33 kPa, the “vapor or sublimation pressure” value ([3]; 520.04 K) was 2.289 ± 0.32 kPa and the “vapor or sublimation pressure” value ([3]; 520.06 K) was 2.527 ± 0.34 kPa. The “vapor or sublimation pressure” value ([3]; 520.08 K) was 2.386 ± 0.33 kPa, the “vapor or sublimation pressure” value ([3]; 525.02 K) was 3.001 ± 0.35 kPa and the “vapor or sublimation pressure” value ([3]; 525.03 K) was 2.837 ± 0.34 kPa. For the same molecule, the “vapor or sublimation pressure” value ([3]; 525.05 K) was 2.926 ± 0.35 kPa, the “vapor or sublimation pressure” value ([3]; 525.08 K) was 2.758 ± 0.33 kPa and the “vapor or sublimation pressure” value ([3]; 530.01 K) was 3.298 ± 0.41 kPa. For the same molecule, the “vapor or sublimation pressure” value ([3]; 530.03 K) was 3.568 ± 0.43 kPa, the “vapor or sublimation pressure” value ([3]; 530.05 K) was 3.382 ± 0.41 kPa and the “vapor or sublimation pressure” value ([3]; 530.06 K) was 3.455 ± 0.42 kPa. The “vapor or sublimation pressure” value ([3]; 535.02 K) was 3.943 ± 0.44 kPa, the “vapor or sublimation pressure” value ([3]; 535.04 K) was 4.206 ± 0.52 kPa and the “vapor or sublimation pressure” value ([3]; 535.06 K) was 4.019 ± 0.46 kPa. The “vapor or sublimation pressure” value ([3]; 535.07 K) was 4.152 ± 0.5 kPa and the Normal melting temperature [3] was 200.33 ± 0.62 °C.
